According to ChEMBL document CHEMBL1201862, “PubChem BioAssay data set” (2004):
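Dose response: 5 concentrations. Exposure: 48 h. Format: 96-well plates. Endpoint: linear interpolation; highest concentration if not reached. GI50 = concentration required for 50% inhibition of growth.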 Activity calls are given as the source filed them. Cut-off read from the data, not from the text of the source: active = GI50 up to about 1.1 µM and inactive = higher.

Columns and labels:
Test in all cases: NCI anticancer screen, dose series, 48 h
HT-29 = test system: HT-29
CAKI-1 = test system: CAKI-1
SR = test system: SR
MDA-N = test system: MDA-N
MOLT-4 = test system: MOLT-4
U-251 = test system: U-251
UACC-257 = test system: UACC-257
A549 = test system: A549
IGROV-1 = test system: IGROV-1
OVCAR-3 = test system: OVCAR-3
SK-MEL-2 = test system: SK-MEL-2
NCI-H460 = test system: NCI-H460
HOP-92 = test system: HOP-92
HL-60 = test system: HL-60
SN12C = test system: SN12C
CCRF-CEM = test system: CCRF-CEM
MDA-MB-231 = test system: MDA-MB-231
ACHN = test system: ACHN
Hs-578T = test system: Hs-578T
SNB-75 = test system: SNB-75

Row | SMILES | GI50 (HT-29) | GI50 (CAKI-1) | GI50 (SR) | GI50 (MDA-N) | GI50 (MOLT-4) | GI50 (U-251) | GI50 (UACC-257) | GI50 (A549) | GI50 (IGROV-1) | GI50 (OVCAR-3) | GI50 (SK-MEL-2) | GI50 (NCI-H460) | GI50 (HOP-92) | GI50 (HL-60) | GI50 (SN12C) | GI50 (CCRF-CEM) | GI50 (MDA-MB-231) | GI50 (ACHN) | GI50 (Hs-578T) | GI50 (SNB-75)
1 | Cc1ccc(C2SCC(=O)N2c2ccc(-c3ccc(-n4c(-c5ccccc5)nc5ccccc5c4=O)cc3)cc2)cc1 (configuration not stated) | 38.9 µM (inactive) | > 100 µM (inactive) | 36.4 µM (inactive) | 80 µM (inactive) | 34.5 µM (inactive) | 73.3 µM (inactive) | > 100 µM (inactive) | > 100 µM (inactive) | 25.3 µM (inactive) | > 100 µM (inactive) | > 100 µM (inactive) | 59.6 µM (inactive) | 35 µM (inactive) | 31 µM (inactive) | 86.5 µM (inactive) | 34.9 µM (inactive) | 92.9 µM (inactive) | > 100 µM (inactive) | 55.5 µM (inactive) | 
2 | CCOC(=O)c1cc(C)n(CN(CCO)Cn2nc(C(=O)OCC)cc2C)n1 | 23.6 µM (inactive) | 36.2 µM (inactive) | 28.6 µM (inactive) | 29.2 µM (inactive) | 31.8 µM (inactive) | 35.3 µM (inactive) | 29.2 µM (inactive) | 97.3 µM (inactive) | 29.4 µM (inactive) | 26 µM (inactive) | 19.9 µM (inactive) | 66.5 µM (inactive) | 24.8 µM (inactive) | 34.2 µM (inactive) | 27.4 µM (inactive) | 18.8 µM (inactive) | 27.9 µM (inactive) | 22.8 µM (inactive) | 97.7 µM (inactive) | 
3 | COc1cc2c(c3oc4c(O)cccc4c(=O)c13)CC(C(C)(O)CO)O2 (configuration not stated) | 43.8 µM (inactive) | 39.9 µM (inactive) | 34.1 µM (inactive) | 94.8 µM (inactive) | 15.7 µM (inactive) | 97.9 µM (inactive) | > 100 µM (inactive) | > 100 µM (inactive) | 41.7 µM (inactive) | > 100 µM (inactive) | 57.4 µM (inactive) | 96.8 µM (inactive) | 37.2 µM (inactive) | 83.2 µM (inactive) | 60.1 µM (inactive) | 21.3 µM (inactive) | 63.7 µM (inactive) | 59.6 µM (inactive) | 44.3 µM (inactive) | 
4 | COc1ccc(-n2cnc3c2=NC(C)(C)NC=3C(N)=O)c(OC)c1 | > 100 µM (inactive) | > 100 µM (inactive) | > 100 µM (inactive) | > 100 µM (inactive) |  | > 100 µM (inactive) | > 100 µM (inactive) | > 100 µM (inactive) | > 100 µM (inactive) | > 100 µM (inactive) |  | > 100 µM (inactive) | 42.1 µM (inactive) | > 100 µM (inactive) | > 100 µM (inactive) | > 100 µM (inactive) | > 100 µM (inactive) | > 100 µM (inactive) | > 100 µM (inactive) | > 100 µM (inactive)
5 | CC(C)(C)C(=O)OCOP(=O)(OCOC(=O)C(C)(C)C)OCC1OC(n2ccc(=O)[nH]c2=O)C(N=[N+]=[N-])C1O (configuration not stated) | 3.44 µM (inactive) | 10.4 µM (inactive) | 2.2 µM (inactive) | 3.11 µM (inactive) | 4.01 µM (inactive) | 2.59 µM (inactive) | 5.37 µM (inactive) | 2.99 µM (inactive) | 4.23 µM (inactive) | 0.4 µM (active) |  | 3.08 µM (inactive) | 1.82 µM (inactive) | 2.14 µM (inactive) | 10.3 µM (inactive) | 2.53 µM (inactive) | 8.79 µM (inactive) | 4.2 µM (inactive) | 0.804 µM (active) | 1.42 µM (inactive)
6 | CO/[N+]([O-])=C\C(=O)N/C=C/C(=O)O | > 10 µM (inactive) | > 100 µM (inactive) | > 100 µM (inactive) | > 100 µM (inactive) | > 100 µM (inactive) | > 100 µM (inactive) | > 100 µM (inactive) |  | > 100 µM (inactive) | > 100 µM (inactive) |  | > 100 µM (inactive) | > 100 µM (inactive) | > 100 µM (inactive) | > 100 µM (inactive) | > 100 µM (inactive) | > 100 µM (inactive) | > 100 µM (inactive) | > 100 µM (inactive) | > 100 µM (inactive)
